Laboratory results as given in patent publication US10759779B2, “Crystalline form of orexin receptor antagonist, processes for preparation thereof and use thereof” (priority 2017, dated 2020).

Columns and labels:
Assay type in all cases: physicochemical
[1] = Flowability (bulk/tapped density, compressibility index); details: for Compressibility index: c=(ρf−ρ0)/ρf*100%; for Flowability: class by compressibility index
Method: Compressibility, also known as compressibility index is usually used to evaluate the flowability of powder and granular intermediates during the formulation process. A certain amount of powder was added into a measuring cylinder and bulk volume was recorded. Then the measuring cylinder was tapped to make the powder in the tightest state and the tapped volume was recorded. The bulk density (ρ0), tapped density (ρf) were calculated, and compressibility index was calculated according to c=(ρf−ρ0)/ρf. Compressibility index or Carr Index is an important indicator for evaluating the flowability of powder.
Compressibility index test method is as follows: Compressibility index was calculated according to bulk density ρ0 and tapped density ρf of Form CS2 and the amorphous solid of the prior art with c=(ρf−ρ0)/ρf*100%.

[2] = Grinding stability of Form CS2; details: ground manually for 5 minutes in a mortar, XRPD
Method: Form CS2 was ground manually for 5 minutes in a mortar. The XRPD pattern of the solids before and after grinding are presented in FIG. 12 (top: XRPD pattern before grinding; bottom: XRPD pattern after grinding). […] Form CS2 has good grinding stability.

[3] = Hygroscopicity by dynamic vapor sorption (DVS)
Method: Thermo gravimetric analysis (TGA) data in the present disclosure were acquired by a TA Q500. The parameters of the TGA method of the present disclosure were as follows: • Heating rate: 10° C./min • Purge gas: nitrogen • Dynamic Vapor Sorption (DVS) is measured via a SMS (Surface Measurement Systems Ltd.) intrinsic DVS instrument. Typical Parameters for DVS test are as follows: • Temperature: 25° C. • Gas and flow rate: N2, 200 mL/min • dm/dt: 0.002%/min • RH range: 0% RH to 95% RH
Dynamic vapor sorption (DVS) was applied to measure hygroscopicity of Form CS2 with about 10 mg of samples. The weight gains at each relative humidity were recorded in a cycle of 0-95%-0 RH. The XRPD pattern overlay of Form CS2 before and after DVS test is presented in FIG. 14 (top: XRPD pattern before DVS; bottom: XRPD pattern after DVS). […] The weight gain under 80% RH is 0.21%.

[4] = Adhesiveness (material sticking to the punch); details: 30 mg, φ8 mm round tooling, 10 KN, 30s
Method: 30 mg of Form CS2 was weighed and added into the dies of φ8 mm round tooling, tableted at 10 KN and held for 30s. The amount of material sticking to the punch was weighed. The compression was repeated twice and the cumulative amount, maximum amount and average amount of material sticking to the punch during the compression process were recorded.

[5] = Compressibility (tablet hardness, tensile strength)
Method: 80 mg of Form CS2 was weighted and added into the dies of φ6 mm round tooling, compressed at 10 KN. The round tablet was stored in a desiccator for 24 hours until complete elastic recovery. Hardness (H) was tested with a tablet hardness tester. Diameter (D) and thickness (L) were tested with caliper. Tensile strength of the powder was calculated with the following formula: T=2H/πDL. Under a certain force, the greater the tensile strength, the better the compressibility.

[6] = 80 mg tablet, φ6 mm, 10 KN, after 24 hours

Row | SMILES | Bulk density (ρ0) [1] [g/mL] | Tapped density (ρf) [1] [g/mL] | Compressibility index [1] [%] | Flowability [1] | Crystalline form after grinding [2] | Weight gain under 80% Relative Humidity ([3]; DVS, 25° C.) [%] | Crystalline form after DVS ([3]; cycle of 0-95%-0 RH, XRPD) | Average amount of material sticking to the punch [4] [mg] | Cumulative amount of material sticking to the punch [4] [mg] | Maximum amount of material sticking to the punch [4] [mg] | Diameter [5, 6] [mm] | Hardness [5, 6] [N] | Thickness [5, 6] [mm] | Tensile strength ([5]; T=2H/πDL) [MPa]
1 | Cc1ncc(OC[C@@]2(c3cccc(F)c3)C[C@H]2C(=O)Nc2ccc(F)cn2)c(C)n1 [Amorphous solid, (1R,2S)-2-{[(2,4-dimethylpyrimidin-5-yl)oxy]methyl}-2-(3-fluorophenyl)-N-(5-fluoropyridin-2-yl)cyclopropanecarboxamide, reference compound] | 0.196 | 0.274 | 28 | Poor |  |  |  |  |  |  |  |  |  | 
2 | Cc1ncc(OC[C@@]2(c3cccc(F)c3)C[C@H]2C(=O)Nc2ccc(F)cn2)c(C)n1 [Form CS2, (1R,2S)-2-{[(2,4-dimethylpyrimidin-5-yl)oxy]methyl}-2-(3-fluorophenyl)-N-(5-fluoropyridin-2-yl)cyclopropanecarboxamide] | 0.263 | 0.351 | 25 | Passable (21-25) | does not change after grinding | 0.21 | does not change after DVS | 0.22 | 0.44 | 0.74 | 6.06 | 8.4 | 2.40 | 0.37
